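Briefly, cells in 96-well plates were exposed to five compound concentrations for 48 h, and endpoints were estimated by linear interpolation. GI50 is the concentration that inhibits growth by half. TGI: concentration producing complete growth inhibition.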
What was measured:
Test in all cases: NCI anticancer screen, dose series, 48 h
[1] = test system: HOP-92 NSCLC
[2] = test system: HL-60(TB) leukemia
[3] = test system: HS 578T breast
[4] = test system: OVCAR-3 ovarian
[5] = test system: A549 NSCLC
[6] = test system: LOX IMVI melanoma
[7] = test system: RPMI-8226 leukemia
[8] = test system: SF-295 CNS
[9] = test system: T-47D breast
[10] = test system: SW-620 colon

## Oc1ccc(-c2nc3ccc4[nH]ncc4c3c3c2CCCC3)c(F)c1
[1]
  GI50: 2.07 µM
  TGI: 9.8 µM
[2]
  GI50: 2.93 µM
  TGI: 8.82 µM
[3]
  GI50: 2.35 µM
  TGI: 8.98 µM
[4]
  GI50: 2.89 µM
  TGI: 7.85 µM
[5]
  GI50: 1.17 µM
  TGI: 6.11 µM
[6]
  GI50: 2.9 µM
  TGI: 12.4 µM
[7]
  GI50: 1.8 µM
  TGI: 10.7 µM
[8]
  GI50: 3.81 µM
  TGI: 14.3 µM
[9]
  GI50: 1.57 µM
  TGI: 6.61 µM
[10]
  GI50: 1.41 µM
  TGI: 8.29 µM

## CCN1C(=O)CCCc2c1ccc(Nc1ncc(Cl)c(NC3[C@@H](C(N)=O)[C@@H]4C=C[C@H]3C4)n1)c2OC (some centres undefined)
[1]
  GI50: 0.276 µM
  TGI: 2.26 µM
[2]
  GI50: 0.667 µM
  TGI: 5.46 µM
[3]
  GI50: 1.88 µM
  TGI: 8.26 µM
[4]
  GI50: 2.14 µM
  TGI: 10.6 µM
[5]
  GI50: 0.741 µM
  TGI: 5.88 µM
[6]
  GI50: 0.774 µM
  TGI: 2.48 µM
[7]
  GI50: 0.976 µM
  TGI: 4.26 µM
[8]
  GI50: 1.45 µM
  TGI: 13.3 µM
[9]
  GI50: 1.91 µM
  TGI: 14.3 µM
[10]
  GI50: 0.564 µM
  TGI: 3.48 µM

## Cc1ccc(C(NC(=O)c2ccccc2)c2ccc3cccnc3c2O)cc1 (centres undefined)
[1]
  GI50: 0.145 µM
  TGI: 11.7 µM
[2]
  GI50: 0.288 µM
  TGI: 1 µM
[3]
  GI50: 1.25 µM
  TGI: > 74.7 µM
[4]
  GI50: 0.351 µM
  TGI: 18.2 µM
[5]
  GI50: 0.379 µM
  TGI: 12.7 µM
[6]
  GI50: 0.15 µM
[7]
  GI50: 0.323 µM
  TGI: 17.8 µM
[8]
  GI50: 0.351 µM
  TGI: 14.7 µM
[9]
  GI50: 0.478 µM
  TGI: 27.7 µM
[10]
  GI50: 0.431 µM
  TGI: > 43.5 µM

## CCCCCCNC(=O)Oc1ccc(/C(=C(/C)Cc2ccc(OC)cc2)c2ccc(OCCCN(C)C)cc2)cc1
[1]
  GI50: 9.99 µM
  TGI: 22.4 µM
[2]
  GI50: 10.5 µM
  TGI: 24.9 µM
[3]
  GI50: 15.5 µM
  TGI: 35.7 µM
[4]
  GI50: 15.2 µM
  TGI: 29.3 µM
[5]
  GI50: 16.6 µM
  TGI: 31.2 µM
[6]
  GI50: 2.61 µM
  TGI: 15.6 µM
[7]
  GI50: 15.9 µM
  TGI: 35 µM
[8]
  GI50: 14.7 µM
  TGI: 28.3 µM
[9]
  GI50: 11.3 µM
  TGI: 27.3 µM
[10]
  GI50: 16.4 µM
  TGI: 31.2 µM

## N[C@@H]1C(=O)N2C(C(=O)OC(c3ccccc3)c3ccccc3)=C(CCl)CS[C@H]12
[1]
  GI50: 38.3 µM
  TGI: > 71.4 µM
[2]
  GI50: 2.46 µM
  TGI: > 38.3 µM
[3]
  GI50: 46.8 µM
  TGI: > 100 µM
[4]
  GI50: 26 µM
  TGI: 75.6 µM
[5]
  GI50: > 67.5 µM
  TGI: > 100 µM
[6]
  GI50: 24.9 µM
  TGI: 65 µM
[7]
  GI50: 16.8 µM
  TGI: 50.8 µM
[8]
  GI50: > 94.3 µM
  TGI: > 100 µM
[9]
  GI50: 46 µM
  TGI: > 100 µM
[10]
  GI50: 36.6 µM
  TGI: > 100 µM

## CC(C)N1CCN(Cc2ccc3c(NNC(=O)c4ccccc4)nc4cc(F)ccc4n23)CC1
[1]
  GI50: 0.678 µM
  TGI: 15.3 µM
[2]
  GI50: 0.322 µM
  TGI: 1.43 µM
[3]
  GI50: 4.23 µM
  TGI: 26.9 µM
[4]
  GI50: 0.289 µM
  TGI: 6.79 µM
[5]
  GI50: 0.465 µM
  TGI: 8.47 µM
[6]
  GI50: 0.198 µM
  TGI: 1.54 µM
[7]
  GI50: 0.476 µM
  TGI: 3.18 µM
[8]
  GI50: 0.277 µM
  TGI: 1.69 µM
[9]
  GI50: 0.419 µM
  TGI: 11.7 µM
[10]
  GI50: 0.463 µM
  TGI: 2.12 µM
